Patent publication US20250230147A1, “LACTAMS AS CBL-B INHIBITORS” (Genentech, Inc., priority 2021, published 2025)

Columns and labels:
Cbl-b = Cbl-b (Homo sapiens (Human), UniProt Q13191); assay: Cbl-b LCK Ub TR-FRET assay (Cbl-b Lck HTRF); type: biochemical
Outline: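 TR-FRET (340 nm excitation, 615/665 nm emission) read after adding HA-ubiquitin–UBE2D2 thioester, anti-HA-D2 and streptavidin-Eu. Beforehand, compounds incubated 60 min with biotinylated Cbl-b, then 90 min with His-LCK and ATP (1 mM in 2× mix); IC50 from 10 concentrations, DMSO high and no-LCK low controls.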

c-Cbl = c-Cbl (Homo sapiens (Human), UniProt P22681); assay: C-Cbl LCK Ub TR-FRET assay (c-cbl Lck HTRF); type: biochemical; conditions: for (fold-selectivity): C-cbl Lck HTRF IC50 relative to Cbl-b Lck HTRF IC50
Chain of c-Cbl (P22681 47-435): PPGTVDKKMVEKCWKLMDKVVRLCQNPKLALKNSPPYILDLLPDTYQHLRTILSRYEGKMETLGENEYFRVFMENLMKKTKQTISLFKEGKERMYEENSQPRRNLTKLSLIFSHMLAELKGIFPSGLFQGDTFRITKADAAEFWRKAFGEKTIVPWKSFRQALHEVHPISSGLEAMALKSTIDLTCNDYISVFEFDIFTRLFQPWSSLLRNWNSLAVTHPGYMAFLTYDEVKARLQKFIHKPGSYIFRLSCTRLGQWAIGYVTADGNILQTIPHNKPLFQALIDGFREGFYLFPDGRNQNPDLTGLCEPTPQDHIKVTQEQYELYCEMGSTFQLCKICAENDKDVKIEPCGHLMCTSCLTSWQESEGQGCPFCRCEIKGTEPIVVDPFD
Outline: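 Detection reagents added, brief spin, 20 min RT. IC50 fit normalized to no-LCK (low) and DMSO (high) controls.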

Chain of Cbl-b (Q13191 40-426): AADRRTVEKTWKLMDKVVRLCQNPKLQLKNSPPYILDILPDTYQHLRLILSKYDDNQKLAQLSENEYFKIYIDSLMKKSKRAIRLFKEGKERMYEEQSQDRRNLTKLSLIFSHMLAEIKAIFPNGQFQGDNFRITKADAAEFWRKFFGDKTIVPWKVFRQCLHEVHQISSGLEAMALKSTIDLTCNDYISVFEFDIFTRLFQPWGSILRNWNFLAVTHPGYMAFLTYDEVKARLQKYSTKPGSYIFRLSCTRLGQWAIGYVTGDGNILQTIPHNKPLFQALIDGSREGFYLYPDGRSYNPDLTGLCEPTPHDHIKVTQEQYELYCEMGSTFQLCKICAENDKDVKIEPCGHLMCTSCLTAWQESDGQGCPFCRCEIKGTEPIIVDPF

Row | SMILES | IC50 (Cbl-b) [nM] | IC50 (c-Cbl) [nM] | (fold-selectivity) (c-Cbl)
1 | Cn1cnnc1[C@@H](F)C1(c2cccc(N3Cc4c(cc(CN5CCC[C@H]5CO)cc4C(F)(F)F)C3=O)c2)COC1 [Compound 150, 2-(3-(3-((S)-fluoro(4-methyl-4H-1,2,4-triazol-3-yl)methyl)oxetan-3-yl)phenyl)-6-(((S)-2-(hydroxymethyl)pyrrolidin-1-yl)methyl)-4-(trifluoromethyl)isoindolin-1-one] | 1400 | 1500 | 1.1x
2 | Cn1cnnc1[C@@H](F)C1(c2cccc(N3Cc4c(cc(CN5CC6(CC6)C5)cc4C(F)(F)F)C3=O)c2)COC1 [Compound 79] | 170 | 270 | 1.6x
3 | COCCN1CCC(Nc2cc(C3(Cc4nncn4C)CCC3)cc(N3Cc4c(cc(CNC5(C)CCC5)cc4C(F)(F)F)C3=O)n2)CC1 [Compound 302, 2-(6-((1-(2-methoxyethyl)piperidin-4-yl)amino)-4-(1-((4-methyl-4H-1,2,4-triazol-3-yl)methyl)cyclobutyl)pyridin-2-yl)-6-(((1-methylcyclobutyl)amino)methyl)-4-(trifluoromethyl)isoindolin-1-one] | 590 | 660 | (1.1x)
4 | Cn1cnnc1[C@H](F)C1(c2cccc(N3Cc4c(cccc4-c4ccccc4)C3=O)c2)COC1 [Compound 210, (R)-2-(3-(3-(fluoro(4-methyl-4H-1,2,4-triazol-3-yl)methyl)oxetan-3-yl)phenyl)-4-phenylisoindolin-1-one] | > 20000 | > 20000 | 1.0x
5 | CCc1cccc2c1CN(c1cccc(C3([C@@H](F)c4nncn4C)COC3)c1)C2=O [Compound 209] | 1100 | 1900 | 1.7x

Molecules with a lower IC50 (Cbl-b), results first:

Row | IC50 (Cbl-b) [nM] | IC50 (c-Cbl) [nM] | (fold-selectivity) (c-Cbl) | SMILES
6 | 89 | 99 | (101x) | Cl.Cn1cnnc1CC1(c2cc(NCc3ccncc3)nc(N3Cc4c(cc(CNC5(C)CCC5)cc4C(F)(F)F)C3=O)c2)CCC1 [Compound 380, 2-(4-(1-((4-methyl-4H-1,2,4-triazol-3-yl)methyl)cyclobutyl)-6-((pyridin-4-ylmethyl)amino)pyridin-2-yl)-6-(((1-methylcyclobutyl)amino)methyl)-4-(trifluoromethyl)isoindolin-1-one hydrochloride]
7 | 88 | 130 | 1.4x | Cn1cnnc1[C@H](F)[C@](C)(F)c1cccc(N2Cc3c(cc(CN4CC(C)(F)C4)cc3C(F)(F)F)C2=O)c1 [Compound 31, 2-(3-((1 S,2R)-1,2-difluoro-1-(4-methyl-4H-1,2,4-triazol-3-yl)propan-2-yl)phenyl)-6-((3-fluoro-3-methylazetidin-1-yl)methyl)-4-(trifluoromethyl)isoindolin-1-one]
8 | 80 | 180 | 2.2x | Cn1cnnc1[C@@H](F)C1(c2cccc(N3Cc4c(cc(CN5CCC6(CC6)C5)cc4C(F)(F)F)C3=O)c2)CC1 [Compound 28, (S)-6-(5-azaspiro[2.4]heptan-5-ylmethyl)-2-(3-(1-(fluoro(4-methyl-4H-1,2,4-triazol-3-yl)methyl)cyclopropyl)phenyl)-4-(trifluoromethyl)isoindolin-1-one]
9 | 39 | 61 | – | Cn1cnnc1[C@H](F)C1(c2cccc(N3Cc4c(cc(CN5CCC6(CC6)C5)cc4C(F)(F)F)C3=O)c2)CC1 [Compound 27, (R)-6-(5-azaspiro[2.4]heptan-5-ylmethyl)-2-(3-(1-(fluoro(4-methyl-4H-1,2,4-triazol-3-yl)methyl)cyclopropyl)phenyl)-4-(trifluoromethyl)isoindolin-1-one]
10 | 19 | 19 | (1.0x) | Cn1cnnc1CC1(c2cccc(N3Cc4c(cc([C@H](N)C5CC5)cc4C(F)(F)F)C3=O)c2)CC(F)(F)C1 [Compound 435, (R)-6-(amino(cyclopropyl)methyl)-2-(3-(3,3-difluoro-1-((4-methyl-4H-1,2,4-triazol-3-yl)methyl)cyclobutyl)phenyl)-4-(trifluoromethyl)isoindolin-1-one]
